# Reference: US6242564A (priority 1992, dated 2001)
# Assays:
# [1] = tested on: T4 antigen (gp 120 receptor) on rat hippocampal membranes; experiment: Displacement of specific 125I-gp 120 binding to fresh rat hippocampal (brain) membranes
# Experimental: ETLV-IIIb isolate of HIV was propaged in H9 cells, and the gp 120 was isolated by immunoaffinity chromatography and preparative NaDodSO4 /PAGE. Purified gp 120 was labeled with 125 by the chloramine-T method.
# Fresh human, monkey, and rat hippocampus were quickly homogenized (POLYTRON, Brinkmann Instruments) in 100 vol. of ice-cold 50 mM Hepes (pH 7.4). The membranes collected by centrifugation (15,000×g) were washed in the original buffer volume and were used fresh or stored at -70° C. Before use, brain membranes and highly purified T cells were preincubated for 15-30 min in phosphate-buffered saline (PBS). Preincubated membranes derived from 2 mg (initial we weight) of brain (α100 μg of protein) were incubated with 28,000 cpm of 125I -gp 120 for 1 hour at 37° C. in 200 μl (final volume) of 50 mM Hepes containing 0.1% bovine serum albumin and the peptidase inhibitors bacitracin (0.005%), aprotinin (0.005%), leupeptin (0.001%), and chymostatin (0.001%). Incubations were rapidly vacuum-filtered and counted to determine the receptor-bound material.
# Each determination was performed in triplicate; the results of one experiment, which was performed three times with similar results, is shown. Specific binding (FIG. 2b) displaceable by 10 μg/ml of OKT4 and 4A ranged between 27 and 85% of total binding, which was 2,201±74 cpm in the experiment shown.
# [2] = tested on: HTLV-III virus (HIV); experiment: Blockade of viral infection of human T cells (reverse transcriptase activity); assay type: cell-based; settings: for Rank order of potencies in inhibiting receptor binding and viral infectivity: FIGS. 2c, 3
# Experimental: The treated cells were then panned on a plastic Petri dish that was coated with goat [F(ab')2 ] anti-mouse immunoglobulin (Sero Lab, Eastbury, Mass.) for 20 min at 4° C. The nonadherent cells were then removed, washed, and analyzed for reactivity by flow cytometry. […] Cells were then cultured with phytohemagglutinin (1 μg/ml) for 72 hrs and exposed to HIV as described below. Infected cells were phenotypically characterized when cytotoxicity assays were performed.
# The HTLV-III virus used for infection was isolated from an interleukin 2 (IL-2)-dependent cultured T-cell line established from fresh AIDS patient material and passaged into HuT 78, permissive IL-2-independent cell line.
# Each determination was performed in duplicate.
# [3] = biological target: HIV viral receptors, such as T4 (Homo sapiens, UniProt P01730); experiment: General statements of receptor binding / activity, test not specified
# [4] = tested on: gp 120; settings: in vitro; cited from earlier work
# [5] = tested on: HIV; settings: in vitro; cited from earlier work
molecule,measurement,setting,value
C[C@H](N)C(=O)N[C@@H](CO)C(=O)N[C@H](C(=O)N[C@H](C(=O)N[C@H](C(=O)N[C@@H](CC(N)=O)C(=O)N[C@@H](Cc1ccc(O)cc1)C(=O)N[C@@H](C(N)=O)[C@H](C)O)[C@@H](C)O)[C@@H](C)O)[C@@H](C)O [D-[Thr]8-peptide T-amide],Loss of receptor binding activity versus peptide T,[1],≥ 100 fold
same,Rank order of potencies in inhibiting receptor binding and viral infectivity,[2],D-[Ala]1 -peptide T-amide>D-[Ala]1 -peptide T>peptide T>D-[Thr]8 -peptide T-amide
same,"Concentration required for significant inhibition of viral infection, relative to the active peptides",[2]; human T cells,100 fold
same,Blockade of viral infectivity (in words),"[2]; human T cells, FIG. 3",greatly reduced blockade of viral infection
C[C@@H](N)C(=O)N[C@@H](CO)C(=O)N[C@H](C(=O)N[C@H](C(=O)N[C@H](C(=O)N[C@@H](CC(N)=O)C(=O)N[C@@H](Cc1ccc(O)cc1)C(=O)N[C@H](C(N)=O)[C@@H](C)O)[C@@H](C)O)[C@@H](C)O)[C@@H](C)O [D-[Ala]1-peptide T-amide],Rank order of potencies in inhibiting receptor binding and viral infectivity,[2],D-[Ala]1 -peptide T-amide>D-[Ala]1 -peptide T>peptide T>D-[Thr]8 -peptide T-amide
"CYS-THR-THR-ASN-TYR-THR-CYS (CTTNYTC; printed: CYS-THR-THR-ASN-TYR-THR-CYS) [seven amino acid peptide, core with added cysteines]",Activity (test not specified),[3],also active
VIP: Vasoactive Intestinal Peptide,Binding of gp 120 to brain tissue,[4],inhibit
same,HIV replication in cell culture,[5],inhibit
